The results in this text go back to patent publication US8685974B2 (Bayer CropScience AG, priority 2009, dated 2014).

This data set in a line: physchem. The note with it: pH 2.7.

Molecule `CCn1ccc(-c2cc(Br)cs2)n1` [3-(4-Bromo-2-thienyl)-1-ethyl-1H-pyrazole] came in with a log p of 3.04.

In turn, `CC(C)n1ccc(-c2cc(Br)cs2)n1` [3-(4-Bromo-2-thienyl)-1-isopropyl-1H-pyrazole] had a log p of 3.61.

`Brc1csc(-c2cc[nH]n2)c1` [3-(4-Bromo-2-thienyl)-1H-pyrazole] returned a log p of 1.99.

As to `CCn1cc(I)c(-c2cc(Cl)cs2)n1` [3-(4-Chloro-2-thienyl)-1-ethyl-4-iodo-1H-pyrazole], the log p turned out to be 4.02.

`Clc1csc(-c2cc[nH]n2)c1` [3-(4-Chloro-2-thienyl)-1H-pyrazole]: the log p came out at 1.91.

`CCCn1ccc(-c2cc(C)cs2)n1` [3-(4-Methyl-2-thienyl)-1-propyl-1H-pyrazole] came in with a log p of 3.07.

For the molecule `Cc1csc(-c2cc[nH]n2)c1` [3-(4-Methyl-2-thienyl)-1H-pyrazole], the log p worked out at 1.72.

Molecule `Clc1csc(-c2n[nH]cc2I)c1` [3-(4-chloro-2-thienyl)-4-iodo-1H-pyrazole] showed a log p of 2.68.

Regarding `N#Cc1[nH]nc(-c2ccc(Cl)s2)c1-c1ccncc1` [3-(5-Chloro-2-thienyl)-4-(pyridin-4-yl)-1H-pyrazole-5-carbonitrile], the log p was 1.53.

`CN(C)C=CC(=O)c1cccs1` [3-(Dimethylamino)-1-(2-thienyl)prop-2-en-1-one]: the log p was found to be 1.33.

In the case of `Cc1csc(C(=O)C=CN(C)C)c1` [3-(Dimethylamino)-1-(4-methyl-2-thienyl)prop-2-en-1-one], the log p is 1.65.

The molecule `CC(C)Nc1nccc(C(=CN(C)C)C(=O)c2ccc(Cl)s2)n1` [3-(Dimethylamino)-1-(5-chloro-2-thienyl)-2-[2-(isopropylamino)pyrimidin-4-yl]prop-2-en-1-one] had a log p of 1.67.

On to `CSc1nccc(C(=CN(C)C)C(=O)c2ccc(Cl)s2)n1` [3-(Dimethylamino)-1-(5-chloro-2-thienyl)-2-[2-(methylsulfanyl)pyrimidin-4-yl]prop-2-en-1-one], for which the log p came out at 2.27.

With `Cc1c(Br)c(-c2ccc(Cl)s2)nn1C` [4-Bromo-3-(5-chloro-2-thienyl)-1,5-dimethyl-1H-pyrazole], the log p amounted to 3.92.

In the case of `CCn1nc(-c2ccc(Cl)s2)c(Br)c1C` [4-Bromo-3-(5-chloro-2-thienyl)-1-ethyl-5-methyl-1H-pyrazole], the log p worked out at 4.54.

Take `Cc1c(Br)c(-c2ccc(Cl)s2)nn1C(C)C` [4-Bromo-3-(5-chloro-2-thienyl)-1-isopropyl-5-methyl-1H-pyrazole]: the log p was determined as 5.35.

Molecule `CC(C)n1cc(I)c(-c2cccs2)n1` [4-Iodo-1-isopropyl-3-(2-thienyl)-1H-pyrazole] registered a log p of 3.71.

Consider `Cc1csc(-c2nn(C(C)C)cc2I)c1` [4-Iodo-1-isopropyl-3-(4-methyl-2-thienyl)-1H-pyrazole], for which the log p is 4.26.

In turn, `CC(C)n1ncc(I)c1-c1cccs1` [4-Iodo-1-isopropyl-5-(2-thienyl)-1H-pyrazole] displayed a log p of 3.66.

`CCCc1c(I)c(-c2sccc2C)nn1C` [4-Iodo-1-methyl-3-(3-methyl-2-thienyl)-5-propyl-1H-pyrazole] registered a log p of 4.03.

Molecule `Cc1csc(-c2nn(C)cc2I)c1` [4-Iodo-1-methyl-3-(4-methyl-2-thienyl)-1H-pyrazole] had a log p of 3.18.

Take `CCCc1nn(C)c(-c2sccc2C)c1I` [4-Iodo-1-methyl-5-(3-methyl-2-thienyl)-3-propyl-1H-pyrazole]: the log p came to 4.27.

`CCCc1c(I)c(-c2cccs2)nn1C` [4-Iodo-1-methyl-5-propyl-3-(2-thienyl)-1H-pyrazole] displayed a log p of 3.92.

Turning to `CCCn1cc(I)c(-c2cccs2)n1` [4-Iodo-1-propyl-3-(2-thienyl)-1H-pyrazole], the log p amounted to 3.65.

As to `Ic1c[nH]nc1-c1cccs1` [4-Iodo-3-(2-thienyl)-1H-pyrazole], the log p amounted to 2.1.

Molecule `CCCn1cc(I)c(-c2cc(C)cs2)n1` [4-Iodo-3-(4-methyl-2-thienyl)-1-propyl-1H-pyrazole] came in with a log p of 4.2.
